Test results taken from PubChem BioAssay AID248 (DTP/NCI, 2004).
Values joined by “and” are separate entries in the source; they are usually repeats but may differ in a detail not shown here. Equal values may be shown once. Inconclusive results and toxic doses are left out. Rule as the data show it: active = T/C of 150% or more; inactive = T/C below 125%. Square brackets hold non-standard residues; d marks the D form. Peptide text beside a SMILES is read from it. * marks the point of attachment. ξ: configuration not given here. Cbz = O=C(OCc1ccccc1)*; ξS = NC(CO)C(=O)O

Tested on: L1210 leukemia ip in BDF1 mice, survival T/C
Experiment: NCI In Vivo Anticancer Drug Screen. Data for tumor model L1210 Leukemia (intraperitoneal) in B6D2F1 (BDF1) mice
Conditions: higher = longer survival
Procedure, shortened: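 Each compound was tested against a transplantable tumor grown in mice. The endpoint was survival, with treated animals benchmarked against vehicle controls as a simple ratio.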

[1] = endpoint: mean survival time, dose: 200.0 mg/kg/injection, schedule: Q01DX Z (ip), vehicle: methylcellulose (MC)
[2] = endpoint: mean survival time, dose: 25.0 mg/kg/injection, schedule: Q01DX009 (ip), vehicle: saline
[3] = endpoint: mean survival time, dose: 50.0 mg/kg/injection, schedule: Q01DX009 (ip), vehicle: saline
[4] = endpoint: mean survival time, dose: 100.0 mg/kg/injection, schedule: Q04DX003 (ip), vehicle: saline
[5] = endpoint: mean survival time, dose: 100.0 mg/kg/injection, schedule: Q01DX001 (ip), vehicle: saline
[6] = endpoint: mean survival time, dose: 200.0 mg/kg/injection, schedule: Q01DX001 (ip), vehicle: saline
[7] = endpoint: mean survival time, dose: 100.0 mg/kg/injection, schedule: Q01DX009 (ip), vehicle: saline with Tween-80
[8] = endpoint: mean survival time, dose: 200.0 mg/kg/injection, schedule: Q01DX009 (ip), vehicle: saline with Tween-80
[9] = endpoint: mean survival time, dose: 100.0 mg/kg/injection, schedule: Q01DX009 (ip), vehicle: Klucel (hydroxypropylcellulose) (HPC)
[10] = endpoint: mean survival time, dose: 100.0 mg/kg/injection, schedule: Q04DX003 (ip), vehicle: Klucel (hydroxypropylcellulose) (HPC)
[11] = endpoint: mean survival time, dose: 200.0 mg/kg/injection, schedule: Q01DX009 (ip), vehicle: Klucel (hydroxypropylcellulose) (HPC)
[12] = endpoint: mean survival time, dose: 200.0 mg/kg/injection, schedule: Q04DX003 (ip), vehicle: Klucel (hydroxypropylcellulose) (HPC)
[13] = endpoint: mean survival time, dose: 400.0 mg/kg/injection, schedule: Q01DX009 (ip), vehicle: Klucel (hydroxypropylcellulose) (HPC)
[14] = endpoint: mean survival time, dose: 400.0 mg/kg/injection, schedule: Q04DX003 (ip), vehicle: Klucel (hydroxypropylcellulose) (HPC)
[15] = endpoint: mean survival time, dose: 100.0 mg/kg/injection, schedule: Q04DX003 (ip), vehicle: saline with Tween-80
[16] = endpoint: mean survival time, dose: 200.0 mg/kg/injection, schedule: Q04DX003 (ip), vehicle: saline with Tween-80
[17] = endpoint: mean survival time, dose: 400.0 mg/kg/injection, schedule: Q04DX003 (ip), vehicle: saline with Tween-80
[18] = endpoint: mean survival time, dose: 100.0 mg/kg/injection, schedule: Q01DX009 (ip), vehicle: saline

Measured: T/C

COc1ccc(NC(=O)Nc2cccc(Cl)c2C)cc1
inactive: endpoint: mean survival time, dose: 100.0 mg/kg/injection, schedule: Q01DX009 (sc), vehicle: olive oil, sesame oil, peanut oil 100 % of control | endpoint: mean survival time, dose: 100.0 mg/kg/injection, schedule: Q04DX003 (sc), vehicle: olive oil, sesame oil, peanut oil 100 % of control | endpoint: mean survival time, dose: 200.0 mg/kg/injection, schedule: Q01DX009 (sc), vehicle: olive oil, sesame oil, peanut oil 96 % of control | endpoint: mean survival time, dose: 200.0 mg/kg/injection, schedule: Q04DX003 (sc), vehicle: olive oil, sesame oil, peanut oil 98 % of control | endpoint: mean survival time, dose: 400.0 mg/kg/injection, schedule: Q01DX009 (sc), vehicle: olive oil, sesame oil, peanut oil 100 % of control | endpoint: mean survival time, dose: 400.0 mg/kg/injection, schedule: Q04DX003 (sc), vehicle: olive oil, sesame oil, peanut oil 101 % of control

CSc1nc(Cl)cc(-c2ccccc2)n1
inactive: [1] 106 % of control

CSc1ncc(COP(=S)(OCc2cnc(SC)nc2N)OCc2cnc(SC)nc2N)c(N)n1
inactive: endpoint: mean survival time, dose: 12.5 mg/kg/injection, schedule: Q04DX003 (ip), vehicle: saline 100 % of control | endpoint: mean survival time, dose: 25.0 mg/kg/injection, schedule: Q04DX003 (ip), vehicle: saline 103 % of control | endpoint: mean survival time, dose: 50.0 mg/kg/injection, schedule: Q04DX003 (ip), vehicle: saline 97 % of control

CN(C)C1CC[N-]CC1.CN(C)C1CC[N-]CC1.[Cl][Pt+2][Cl]
inactive: [2] 110 % of control | [3] 110 % of control | [4] 92 % of control

CC1C(=O)OC2CC[N+]3([O-])CC=C(COC(=O)C(C)(O)C1(C)O)C23 (stereo not drawn)
inactive: [5] 96 % of control | [6] 96 % of control | endpoint: mean survival time, dose: 400.0 mg/kg/injection, schedule: Q01DX001 (ip), vehicle: saline 102 % of control

O=C(O)c1ccc([N+](=O)[O-])o1
inactive: [7] 89 % of control | endpoint: mean survival time, dose: 100.0 mg/kg/injection, schedule: Q04DX003 (ip), vehicle: other 100 % of control | [8] 97 % of control | endpoint: mean survival time, dose: 200.0 mg/kg/injection, schedule: Q04DX003 (ip), vehicle: other 96 % of control

O=C(O)CNc1ccccc1C(=O)O
inactive: [9] 105 % of control | [10] 102 % of control | [11] 98 % of control | [12] 97 % of control | [13] 92 % of control | [14] 96 % of control

O=C(O)c1ccc(Oc2nc3ccccc3s2)cc1
inactive: [7] 102 % of control | [15] 111 % of control | [8] 120 % of control | [16] 97 % of control | [17] 86 % of control

CN(C)/N=C/c1ccc[n+](C)c1
inactive: endpoint: mean survival time, dose: 6.25 mg/kg/injection, schedule: Q01DX009 (ip), vehicle: saline 113 % of control | endpoint: mean survival time, dose: 12.5 mg/kg/injection, schedule: Q01DX009 (ip), vehicle: saline 109 % of control | [2] 98 % of control and 110 % of control

O=C(O)CCC(C(=O)O)N1C(=O)C2C3CCC(C3)C2C1=O (stereo not drawn)
inactive: endpoint: mean survival time, dose: 25.0 mg/kg/injection, schedule: Q04DX003 (ip), vehicle: saline with Tween-80 93 % of control | endpoint: mean survival time, dose: 50.0 mg/kg/injection, schedule: Q04DX003 (ip), vehicle: saline with Tween-80 96 % of control | [15] 93 % of control and 98 % of control | [16] 95 % of control | [17] 98 % of control

CCN(CC)CCOC(=O)CSC1C2CC3C(C2)C31 (stereo not drawn)
inactive: [3] 94 % of control | [18] 90 % of control | endpoint: mean survival time, dose: 200.0 mg/kg/injection, schedule: Q01DX009 (ip), vehicle: saline 123 % of control

CCCCC1(CC)C(=O)NC(=S)NC1=O
inactive: [5] 114 % of control | [6] 104 % of control

COc1ccc2c(c1)CN(S(=O)(=O)c1ccc(C)cc1)C=CC2=O
inactive: [9] 96 % of control | [10] 90 % of control | [11] 104 % of control | [12] 96 % of control | [13] 96 % of control | [14] 98 % of control

COc1cc2ccc(CCNCc3ccccc3)cc2cc1OC
inactive: [2] 97 % of control | [3] 91 % of control | [18] 90 % of control | [4] 87 % of control

CCOC(=O)CNC(=O)Nc1ccc(NC(C)=O)cc1
inactive: [7] 94 % of control | [8] 94 % of control | endpoint: mean survival time, dose: 400.0 mg/kg/injection, schedule: Q01DX009 (ip), vehicle: saline with Tween-80 88 % of control

O=C1NCC(Nc2ccc(Br)cc2)C(=O)N1 (stereo not drawn)
inactive: endpoint: mean survival time, dose: 100.0 mg/kg/injection, schedule: Q01DX Z (ip), vehicle: methylcellulose (MC) 96 % of control | [1] 94 % of control

NCCCCC(N)C(=O)NCCCCCCN(CCCCCCNC(=O)C(N)CCCCN)C(=O)C(N)CCCCN (stereo not drawn)
inactive: [5] 92 % of control

Cc1cc(O)c(C(C)C)cc1C1=NCC(C)S1 (stereo not drawn)
inactive: endpoint: mean survival time, dose: 100.0 mg/kg/injection, schedule: Q01DX005 (ip), vehicle: Klucel (hydroxypropylcellulose) (HPC) 93 % of control | [9] 102 % of control | endpoint: mean survival time, dose: 100.0 mg/kg/injection, schedule: Q04DX002 (ip), vehicle: Klucel (hydroxypropylcellulose) (HPC) 100 % of control | endpoint: mean survival time, dose: 200.0 mg/kg/injection, schedule: Q01DX005 (ip), vehicle: Klucel (hydroxypropylcellulose) (HPC) 90 % of control | [11] 102 % of control | endpoint: mean survival time, dose: 200.0 mg/kg/injection, schedule: Q04DX002 (ip), vehicle: Klucel (hydroxypropylcellulose) (HPC) 104 % of control | endpoint: mean survival time, dose: 400.0 mg/kg/injection, schedule: Q01DX005 (ip), vehicle: Klucel (hydroxypropylcellulose) (HPC) 97 % of control | [13] 87 % of control | endpoint: mean survival time, dose: 400.0 mg/kg/injection, schedule: Q04DX002 (ip), vehicle: Klucel (hydroxypropylcellulose) (HPC) 107 % of control

O=[N+]([O-])c1cccc(-c2nc3ncncc3[nH]2)c1
inactive: endpoint: mean survival time, dose: 50.0 mg/kg/injection, schedule: Q01DX001 (ip), vehicle: saline with Tween-80 102 % of control | endpoint: mean survival time, dose: 100.0 mg/kg/injection, schedule: Q01DX001 (ip), vehicle: saline with Tween-80 101 % of control | endpoint: mean survival time, dose: 200.0 mg/kg/injection, schedule: Q01DX001 (ip), vehicle: saline with Tween-80 98 % of control

CC(=O)S[C@@H]1CC2=CC(=O)CC[C@]2(C)[C@H]2CC[C@@]3(C)[C@@H](CC[C@@]34CCC(=O)O4)[C@H]12
inactive: endpoint: mean survival time, dose: 45.0 mg/kg/injection, schedule: Q01DX009 (sc), vehicle: steriod suspending solution 107 % of control | endpoint: mean survival time, dose: 90.0 mg/kg/injection, schedule: Q01DX009 (sc), vehicle: steriod suspending solution 102 % of control | [10] 90 % of control | endpoint: mean survival time, dose: 180.0 mg/kg/injection, schedule: Q01DX009 (sc), vehicle: steriod suspending solution 100 % of control | endpoint: median survival time, dose: 100.0 mg/kg/injection, schedule: Q01DX001 (ip), vehicle: water 97 % of control | endpoint: median survival time, dose: 100.0 mg/kg/injection, schedule: Q01DX009 (sc), vehicle: steriod suspending solution 101 % of control | endpoint: median survival time, dose: 200.0 mg/kg/injection, schedule: Q01DX001 (ip), vehicle: water 91 % of control | endpoint: median survival time, dose: 200.0 mg/kg/injection, schedule: Q01DX009 (sc), vehicle: steriod suspending solution 95 % of control | endpoint: median survival time, dose: 400.0 mg/kg/injection, schedule: Q01DX001 (ip), vehicle: water 97 % of control | endpoint: median survival time, dose: 400.0 mg/kg/injection, schedule: Q01DX009 (sc), vehicle: steriod suspending solution 96 % of control

COC(=O)C(CO)NC(=O)CNC(=O)OCc1ccccc1 (stereo not drawn) (Cbz-Gly-[ξS]-OMe)
inactive: endpoint: mean survival time, dose: 100.0 mg/kg/injection, schedule: Q04DX003 (ip), vehicle: water 98 % of control | endpoint: mean survival time, dose: 200.0 mg/kg/injection, schedule: Q04DX003 (ip), vehicle: water 94 % of control | endpoint: mean survival time, dose: 400.0 mg/kg/injection, schedule: Q04DX003 (ip), vehicle: water 96 % of control

C#CCON(C(=O)Nc1ccc(Cl)cc1)C(=O)c1ccc(OC)cc1
inactive: [10] 88 % of control | [12] 86 % of control | [14] 93 % of control

c1ccc(C2(C3(c4ccccc4)SCCCS3)CN2)cc1 (stereo not drawn)
inactive: endpoint: mean survival time, dose: 100.0 mg/kg/injection, schedule: Q01DX001 (ip), vehicle: Klucel (hydroxypropylcellulose) (HPC) 101 % of control | endpoint: mean survival time, dose: 200.0 mg/kg/injection, schedule: Q01DX001 (ip), vehicle: Klucel (hydroxypropylcellulose) (HPC) 97 % of control

COC(=O)C=P(c1ccccc1)(c1ccccc1)c1ccccc1
inactive: endpoint: mean survival time, dose: 75.0 mg/kg/injection, schedule: Q01DX001 (ip), vehicle: carboxymethylcellulose (CMC) 98 % of control | endpoint: mean survival time, dose: 150.0 mg/kg/injection, schedule: Q01DX001 (ip), vehicle: carboxymethylcellulose (CMC) 98 % of control | endpoint: mean survival time, dose: 300.0 mg/kg/injection, schedule: Q01DX001 (ip), vehicle: carboxymethylcellulose (CMC) 101 % of control
